Experiments:
Test in all cases: Combined drug treatment cell viability, CellTiter-Glo assay (Example 2)
Type in all cases: cell-based
Settings in all cases: 3 days
TMD8 = system: TMD8
HBL-1 = system: HBL-1
OCI-LY-10 = system: OCI-LY-10
OCI-LY-3 = system: OCI-LY-3
SU-DHL-2 = system: SU-DHL-2
U2932 = system: U2932
[1] = ibrutinib 0 nM, JAK3 10 μM / MCL-1 3 μM alone
[2] = ibrutinib 0.0512 nM, JAK3 10 μM / MCL-1 3 μM / medium alone
[3] = ibrutinib 0.256 nM, JAK3 10 μM / MCL-1 3 μM / medium alone
[4] = ibrutinib 1.28 nM, JAK3 10 μM / MCL-1 3 μM / medium alone
[5] = ibrutinib 6.4 nM, JAK3 10 μM / MCL-1 3 μM / medium alone
[6] = ibrutinib 32 nM, JAK3 10 μM / MCL-1 3 μM / medium alone
[7] = ibrutinib 160 nM, JAK3 10 μM / MCL-1 3 μM / medium alone
[8] = ibrutinib 800 nM, JAK3 10 μM / MCL-1 3 μM / medium alone
[9] = ibrutinib 20000 nM, JAK3 10 μM / MCL-1 3 μM / medium alone
[10] = ibrutinib 40000 nM, JAK3 10 μM / MCL-1 3 μM / medium alone

## Cc1csc(=NC2CCCCC2)n1/N=C/c1ccc(O)c(O)c1O [MIM1]
TMD8; [1]
  luminescence (CellTiter-Glo): 36019.47
TMD8; [2]
  luminescence (CellTiter-Glo): 19059.39
TMD8; [3]
  luminescence (CellTiter-Glo): 18570.62
TMD8; [4]
  luminescence (CellTiter-Glo): 18591.98
TMD8; [5]
  luminescence (CellTiter-Glo): 19112.81
TMD8; [6]
  luminescence (CellTiter-Glo): 19032.68
TMD8; [7]
  luminescence (CellTiter-Glo): 19452.01
TMD8; [8]
  luminescence (CellTiter-Glo): 18063.15
TMD8; [9]
  luminescence (CellTiter-Glo): 4767.52
TMD8; [10]
  luminescence (CellTiter-Glo): 15624.64
HBL-1; [1]
  luminescence (CellTiter-Glo): 51241.07
HBL-1; [2]
  luminescence (CellTiter-Glo): 27898.48
HBL-1; [3]
  luminescence (CellTiter-Glo): 29488.62
HBL-1; [4]
  luminescence (CellTiter-Glo): 35637.34
HBL-1; [5]
  luminescence (CellTiter-Glo): 30743.57
HBL-1; [6]
  luminescence (CellTiter-Glo): 31548.03
HBL-1; [7]
  luminescence (CellTiter-Glo): 32832.47
HBL-1; [8]
  luminescence (CellTiter-Glo): 28815.56
HBL-1; [9]
  luminescence (CellTiter-Glo): 7366.12
HBL-1; [10]
  luminescence (CellTiter-Glo): 26941.18
OCI-LY-10; [1]
  luminescence (CellTiter-Glo): 43143.62
OCI-LY-10; [2]
  luminescence (CellTiter-Glo): 33524.45
OCI-LY-10; [3]
  luminescence (CellTiter-Glo): 26007.29
OCI-LY-10; [4]
  luminescence (CellTiter-Glo): 18751.19
OCI-LY-10; [5]
  luminescence (CellTiter-Glo): 11024.10
OCI-LY-10; [6]
  luminescence (CellTiter-Glo): 8025.84
OCI-LY-10; [7]
  luminescence (CellTiter-Glo): 8938.24
OCI-LY-10; [8]
  luminescence (CellTiter-Glo): 9390.40
OCI-LY-10; [9]
  luminescence (CellTiter-Glo): 9228.91
OCI-LY-10; [10]
  luminescence (CellTiter-Glo): 10886.83
OCI-LY-3; [1]
  luminescence (CellTiter-Glo): 80237.62
OCI-LY-3; [2]
  luminescence (CellTiter-Glo): 76311.68
OCI-LY-3; [3]
  luminescence (CellTiter-Glo): 80052.59
OCI-LY-3; [4]
  luminescence (CellTiter-Glo): 80436.06
OCI-LY-3; [5]
  luminescence (CellTiter-Glo): 73884.80
OCI-LY-3; [6]
  luminescence (CellTiter-Glo): 75378.47
OCI-LY-3; [7]
  luminescence (CellTiter-Glo): 65609.22
OCI-LY-3; [8]
  luminescence (CellTiter-Glo): 74844.82
OCI-LY-3; [9]
  luminescence (CellTiter-Glo): 75182.71
OCI-LY-3; [10]
  luminescence (CellTiter-Glo): 74901.14
SU-DHL-2; [1]
  luminescence (CellTiter-Glo): 59686.0
SU-DHL-2; [2]
  luminescence (CellTiter-Glo): 55451.4
SU-DHL-2; [3]
  luminescence (CellTiter-Glo): 53088.1
SU-DHL-2; [4]
  luminescence (CellTiter-Glo): 54122.7
SU-DHL-2; [5]
  luminescence (CellTiter-Glo): 53424.9
SU-DHL-2; [6]
  luminescence (CellTiter-Glo): 51898.4
SU-DHL-2; [7]
  luminescence (CellTiter-Glo): 50938.7
SU-DHL-2; [8]
  luminescence (CellTiter-Glo): 51419.9
SU-DHL-2; [9]
  luminescence (CellTiter-Glo): 17553.4
SU-DHL-2; [10]
  luminescence (CellTiter-Glo): 49251.8
U2932; [1]
  luminescence (CellTiter-Glo): 59686.00
U2932; [2]
  luminescence (CellTiter-Glo): 55451.36
U2932; [3]
  luminescence (CellTiter-Glo): 53088.09
U2932; [4]
  luminescence (CellTiter-Glo): 54122.68
U2932; [5]
  luminescence (CellTiter-Glo): 53424.93
U2932; [6]
  luminescence (CellTiter-Glo): 51898.43
U2932; [7]
  luminescence (CellTiter-Glo): 50938.68
U2932; [8]
  luminescence (CellTiter-Glo): 51419.90
U2932; [9]
  luminescence (CellTiter-Glo): 17553.45
U2932; [10]
  luminescence (CellTiter-Glo): 49251.78

— patent US9730938B2, “Bruton's tyrosine kinase inhibitor combinations and uses thereof” (Pharmacyclics LLC, priority 2014, dated 2017)
